Source: US6737383B1, “Herbicidal oxadiazolidines” (priority 1999, dated 2004)

Assays:
crabgrass = experiment: Test B pre/postemergence crabgrass; type: in vivo, Digitaria sanguinalis; conditions: for Crabgrass plant response rating: scale of 0 to 10 where 0 is no effect and 10 is complete control
How it was run: (§1)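 Herbicidal effect was estimated by eye on a ten-point control scale after plants spent twelve to sixteen days in a greenhouse following soil or foliar treatment. Foliar sprays targeted plants at one to four leaves; all doses were formulated in a non-phytotoxic solvent with surfactant.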

smallflower flatsedge = experiment: Test B flood test smallflower flatsedge; type: in vivo, Cyperus difformis
How it was run: (§2)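 Plants were grown to the 2-leaf stage before treatment with test chemical, then held in a greenhouse for twelve to sixteen days. Injury was visually rated against untreated controls on a 0–10 scale, where 0 is no effect and 10 is complete control.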

surinam grass = experiment: Test B pre/postemergence surinam grass; type: in vivo, Brachiaria decumbens; conditions: for B. signalgrass plant response rating: scale of 0 to 10 where 0 is no effect and 10 is complete control
How it was run: as §1

velvetleaf = experiment: Test B pre/postemergence velvetleaf; type: in vivo, Abutilon theophrasti; conditions: for Velvetleaf plant response rating: scale of 0 to 10 where 0 is no effect and 10 is complete control
How it was run: as §1

sugar beet = experiment: Test B pre/postemergence sugar beet; type: in vivo, Beta vulgaris; conditions: for Sugarbeets plant response rating: scale of 0 to 10 where 0 is no effect and 10 is complete control
How it was run: as §1

wild oat = experiment: Test B pre/postemergence wild oat; type: in vivo, Avena fatua; conditions: for Wild oats plant response rating: scale of 0 to 10 where 0 is no effect and 10 is complete control
How it was run: as §1

giant foxtail = experiment: Test B pre/postemergence giant foxtail; type: in vivo, Setaria faberii; conditions: for Giant foxtail plant response rating: scale of 0 to 10 where 0 is no effect and 10 is complete control
How it was run: as §1

corn = experiment: Test B pre/postemergence corn; type: in vivo, Zea mays; conditions: for Corn plant response rating: scale of 0 to 10 where 0 is no effect and 10 is complete control
How it was run: as §1

purple nutsedge = experiment: Test B pre/postemergence purple nutsedge; type: in vivo, Cyperus rotundus; conditions: for Nutsedge plant response rating: scale of 0 to 10 where 0 is no effect and 10 is complete control
How it was run: as §1

wheat = experiment: Test B pre/postemergence wheat; type: in vivo, Triticum aestivum; conditions: for Wheat plant response rating: scale of 0 to 10 where 0 is no effect and 10 is complete control
How it was run: as §1

duck salad = experiment: Test B flood test duck salad; type: in vivo, Heteranthera limosa
How it was run: as §2

blackgrass = experiment: Test B pre/postemergence blackgrass; type: in vivo, Alopecurus myosuroides; conditions: for Blackgrass plant response rating: scale of 0 to 10 where 0 is no effect and 10 is complete control
How it was run: as §1

rice = experiment: Test B flood test rice; type: in vivo, Oryza sativa
How it was run: as §2

rape = experiment: Test B pre/postemergence rape; type: in vivo, Brassica napus; conditions: for Rape plant response rating: scale of 0 to 10 where 0 is no effect and 10 is complete control
How it was run: as §1

bedstraw = experiment: Test B pre/postemergence bedstraw; type: in vivo, Galium aparine
How it was run: as §1

bamyardgrass = experiment: Test B flood test barnyardgrass; type: in vivo, Echinochloa crus-galli
How it was run: as §2

[1] = Postemergence, Rate 125 g/ha, scale 0 to 10, 0 is no effect, 10 is complete control
[2] = Postemergence, Rate 250 g/ha, scale 0 to 10, 0 is no effect, 10 is complete control
[3] = Preemergence, Rate 62 g/ha, scale 0 to 10 (0 no effect, 10 complete control)
[4] = Rate 500 g/ha, Postemergence, scale 0 to 10, 0 no effect, 10 complete control
[5] = Rate 62 g/ha, flood test species, Pre-emergence, visual evaluation after twelve to sixteen days
[6] = Rate 125 g/ha, under heading Pre-emergence, flood test species, visual evaluation after twelve to sixteen days
[7] = Rate 250 g/ha, Pre-emergence, flood-test species, scale 0 to 10, 0 is no effect, 10 is complete control
[8] = Rate 500 g/ha, Pre-emergence, flood test species, scale 0 to 10 (0 no effect, 10 complete control)

CC(C)N(C(=O)n1oc(=O)n(N2C(C)CCCC2C)c1=O)c1ccc(F)cc1F (stereo not drawn) [Compound 383]
6: Plant response rating, Crabgrass (crabgrass; [3]) | B. signalgrass plant response rating (surinam grass; Preemergence, Rate 500 g/ha) | Plant response rating, Giant foxtail (giant foxtail; [2]) | Plant response rating, Giant foxtail (giant foxtail; [4])
8: Crabgrass plant response rating (0 to 10 scale) (crabgrass; Preemergence, Rate 125 g/ha) | Plant response rating, Blackgrass (blackgrass; [4])
7: Giant foxtail plant response rating (0 to 10 scale) (giant foxtail; Preemergence, Rate 125 g/ha) | Blackgrass plant response rating (blackgrass; Preemergence, Rate 500 g/ha)
0: Crabgrass plant response rating (crabgrass; Rate 62 g/ha, Postemergence) | Plant response rating, S. Flatsedge (0 to 10 scale, 0 is no effect, 10 is complete control) (smallflower flatsedge; [5]) | S. Flatsedge plant response rating (0 to 10 scale, 0 is no effect, 10 is complete control) (smallflower flatsedge; [6]) | S. Flatsedge plant response rating (smallflower flatsedge; [7]) | S. Flatsedge plant response rating (smallflower flatsedge; [8]) | Plant response rating, B. signalgrass (surinam grass; [1]) | Plant response rating, B. signalgrass (surinam grass; [2]) | Plant response rating, B. signalgrass (surinam grass; [3]) | B. signalgrass plant response rating (0 to 10 scale, 0 is no effect, 10 is complete control) (surinam grass; Preemergence, Rate 125 g/ha) | B. signalgrass plant response rating (surinam grass; Preemergence, Rate 250 g/ha) | B. signalgrass plant response rating (surinam grass; Rate 62 g/ha, Postemergence) | Plant response rating, B. signalgrass (surinam grass; [4]) | Plant response rating, Velvetleaf (velvetleaf; [1]) | Plant response rating, Velvetleaf (velvetleaf; [2]) | Plant response rating, Velvetleaf (velvetleaf; [3]) | Velvetleaf plant response rating (0 to 10 scale) (velvetleaf; Preemergence, Rate 125 g/ha) | Velvetleaf plant response rating (velvetleaf; Preemergence, Rate 250 g/ha) | Velvetleaf plant response rating (velvetleaf; Preemergence, Rate 500 g/ha) | Velvetleaf plant response rating (velvetleaf; Rate 62 g/ha, Postemergence) | Plant response rating, Velvetleaf (velvetleaf; [4]) | Plant response rating, Sugarbeets (sugar beet; [1]) | Plant response rating, Sugarbeets (sugar beet; [2]) | Plant response rating, Sugarbeets (sugar beet; [3]) | Sugarbeets plant response rating (0 to 10 scale) (sugar beet; Preemergence, Rate 125 g/ha) | Sugarbeets plant response rating (sugar beet; Preemergence, Rate 250 g/ha) | Sugarbeets plant response rating (sugar beet; Preemergence, Rate 500 g/ha) | Sugarbeets plant response rating (sugar beet; Rate 62 g/ha, Postemergence) | Plant response rating, Sugarbeets (sugar beet; [4]) | Plant response rating, Wild oats (wild oat; [1]) | Plant response rating, Wild oats (wild oat; [2]) | Plant response rating, Wild oats (wild oat; [3]) | Wild oats plant response rating (0 to 10 scale) (wild oat; Preemergence, Rate 125 g/ha) | Wild oats plant response rating (wild oat; Preemergence, Rate 250 g/ha) | Wild oats plant response rating (wild oat; Preemergence, Rate 500 g/ha) | Wild oats plant response rating (wild oat; Rate 62 g/ha, Postemergence) | Plant response rating, Wild oats (wild oat; [4]) | Plant response rating, Giant foxtail (giant foxtail; [1]) | Plant response rating, Giant foxtail (giant foxtail; [3]) | Giant foxtail plant response rating (giant foxtail; Rate 62 g/ha, Postemergence) | Plant response rating, Corn (corn; [1]) | Plant response rating, Corn (corn; [2]) | Plant response rating, Corn (corn; [3]) | Corn plant response rating (0 to 10 scale) (corn; Preemergence, Rate 125 g/ha) | Corn plant response rating (corn; Preemergence, Rate 250 g/ha) | Corn plant response rating (corn; Preemergence, Rate 500 g/ha) | Corn plant response rating (corn; Rate 62 g/ha, Postemergence) | Plant response rating, Corn (corn; [4]) | Plant response rating, Nutsedge (purple nutsedge; [1]) | Plant response rating, Nutsedge (purple nutsedge; [2]) | Plant response rating, Nutsedge (purple nutsedge; [3]) | Nutsedge plant response rating (0 to 10 scale) (purple nutsedge; Preemergence, Rate 125 g/ha) | Nutsedge plant response rating (purple nutsedge; Preemergence, Rate 250 g/ha) | Nutsedge plant response rating (purple nutsedge; Preemergence, Rate 500 g/ha) | Nutsedge plant response rating (purple nutsedge; Rate 62 g/ha, Postemergence) | Plant response rating, Nutsedge (purple nutsedge; [4]) | Plant response rating, Wheat (wheat; [1]) | Plant response rating, Wheat (wheat; [2]) | Plant response rating, Wheat (wheat; [3]) | Wheat plant response rating (0 to 10 scale) (wheat; Preemergence, Rate 125 g/ha) | Wheat plant response rating (wheat; Preemergence, Rate 250 g/ha) | Wheat plant response rating (wheat; Preemergence, Rate 500 g/ha) | Wheat plant response rating (wheat; Rate 62 g/ha, Postemergence) | Plant response rating, Wheat (wheat; [4]) | Plant response rating, Ducksalad (0 to 10 scale, 0 is no effect, 10 is complete control) (duck salad; [5]) | Ducksalad plant response rating (0 to 10 scale, 0 is no effect, 10 is complete control) (duck salad; [6]) | Ducksalad plant response rating (duck salad; [7]) | Ducksalad plant response rating (duck salad; [8]) | Plant response rating, Blackgrass (blackgrass; [1]) | Plant response rating, Blackgrass (blackgrass; [3]) | Blackgrass plant response rating (0 to 10 scale) (blackgrass; Preemergence, Rate 125 g/ha) | Blackgrass plant response rating (blackgrass; Rate 62 g/ha, Postemergence) | Plant response rating, Rice (0 to 10 scale, 0 is no effect, 10 is complete control) (rice; [5]) | Rice plant response rating (0 to 10 scale, 0 is no effect, 10 is complete control) (rice; [6]) | Rice plant response rating (rice; [7]) | Rice plant response rating (rice; [8]) | Plant response rating, Rape (rape; [1]) | Plant response rating, Rape (rape; [2]) | Plant response rating, Rape (rape; [3]) | Rape plant response rating (0 to 10 scale) (rape; Preemergence, Rate 125 g/ha) | Rape plant response rating (rape; Preemergence, Rate 250 g/ha) | Rape plant response rating (rape; Preemergence, Rate 500 g/ha) | Rape plant response rating (rape; Rate 62 g/ha, Postemergence) | Plant response rating, Rape (rape; [4]) | Plant response rating, Bedstraw (bedstraw; [1]) | Plant response rating, Bedstraw (bedstraw; [2]) | Plant response rating, Bedstraw (bedstraw; [3]) | Plant response rating, Bedstraw (bedstraw; [4]) | Plant response rating, Barnyardgrass (0 to 10 scale, 0 is no effect, 10 is complete control) (bamyardgrass; [5]) | Barnyardgrass plant response rating (0 to 10 scale, 0 is no effect, 10 is complete control) (bamyardgrass; [6]) | Barnyardgrass plant response rating (bamyardgrass; [7]) | Barnyardgrass plant response rating (bamyardgrass; [8])
4: Plant response rating, Crabgrass (crabgrass; [2]) | Plant response rating, Crabgrass (crabgrass; [4])
10: Crabgrass plant response rating (crabgrass; Preemergence, Rate 500 g/ha) | Giant foxtail plant response rating (giant foxtail; Preemergence, Rate 250 g/ha) | Giant foxtail plant response rating (giant foxtail; Preemergence, Rate 500 g/ha)
1: Plant response rating, Crabgrass (crabgrass; [1])
9: Crabgrass plant response rating (crabgrass; Preemergence, Rate 250 g/ha)
2: Plant response rating, Blackgrass (blackgrass; [2]) | Blackgrass plant response rating (blackgrass; Preemergence, Rate 250 g/ha)
